Data published in patent publication US20260001914A1, “MACROCYCLIC PEPTIDES TARGETING KRAS” (Merck Sharp & Dohme LLC, priority 2022, published 2026).
*1 amine or outer side, *2 acyl side, *3 side chain or, on linkers, in order; H or OH if unused. Where a SMILES comes first, the peptide text is derived from it. Bridges are numbered along the chain shown (N, C = ends). [ ]: non-standard residue; d: D form. X18 = CNC(=N)N(C)c1ccc(C[C@H](N[*:1])C(=O)[*:2])cc1; X76 = CN(CCC[C@@H](C(=O)[*:2])N(C)[*:1])S(C)(=O)=O; X19 = C[C@H](c1ccccc1)[C@@H](C(=O)[*:2])N(C)[*:1]; Ala(pyrimidin-5-yl) = N[C@@H](Cc1cncnc1)C(=O)O; Phe(3-COOH) = N[C@@H](Cc1cccc(C(=O)O)c1)C(=O)O; NMePhe(3-Me) = CN[C@@H](Cc1cccc(C)c1)C(=O)O; Phe(4-CH2NH2) = NCc1ccc(C[C@H](N)C(=O)O)cc1; Trp(1-Me) = Cn1cc(C[C@H](N)C(=O)O)c2ccccc21; X14 = O=C([C@H](Cc1c(F)cncc1F)N[*:1])[*:2]; X25 = O=C([C@H](Cc1ccc(F)nc1)N[*:1])[*:2]; X57 = Cn1ccc(C[C@H](N[*:1])C(=O)[*:2])n1; X11 = CC(C)(F)CC[C@H](N[*:1])C(=O)[*:2]; X30 = O=C([C@H](Cc1ncccc1F)N[*:1])[*:2]; Nle(5,5-F2) = CC(F)(F)CC[C@H](N)C(=O)O; Phe(4-F) = N[C@@H](Cc1ccc(F)cc1)C(=O)O; 1Nal = N[C@@H](Cc1cccc2ccccc12)C(=O)O; NHCH2CH2SCH2CO = O=C(CSCCN[*:1])[*:2]; Phe(2-F) = N[C@@H](Cc1ccccc1F)C(=O)O; NMe3Pal = CN[C@@H](Cc1cccnc1)C(=O)O; X1 = O=C(C12CC(CN[*:1])(C1)C2)[*:2]; NMeCha = CN[C@@H](CC1CCCCC1)C(=O)O; Ala(cPr) = N[C@@H](CC1CC1)C(=O)O; NMeF = CN[C@@H](Cc1ccccc1)C(=O)O; PhLac = O=C(O)[C@@H](O)Cc1ccccc1; 3Pal = N[C@@H](Cc1cccnc1)C(=O)O; 4Pal = N[C@@H](Cc1ccncc1)C(=O)O; d(αMeC) = C[C@@](N)(CS)C(=O)O; Ahp(2) = CCCCC[C@H](N)C(=O)O; hLeu = CC(C)CC[C@H](N)C(=O)O; αMeC = C[C@](N)(CS)C(=O)O; NMeA = CN[C@@H](C)C(=O)O; Nle = CCCC[C@H](N)C(=O)O; Nva = CCC[C@H](N)C(=O)O

Molecular target: KRAS-G12D protein (Homo sapiens, UniProt P01116, G12D)
Experiment: SOS-mediated nucleotide exchange assay (BODIPY-GDP / Tb-streptavidin TR-FRET)
Assay type: biochemical

KRAS-G12D protein, sequence (P01116 1-188 isoform P01116-2 G12D): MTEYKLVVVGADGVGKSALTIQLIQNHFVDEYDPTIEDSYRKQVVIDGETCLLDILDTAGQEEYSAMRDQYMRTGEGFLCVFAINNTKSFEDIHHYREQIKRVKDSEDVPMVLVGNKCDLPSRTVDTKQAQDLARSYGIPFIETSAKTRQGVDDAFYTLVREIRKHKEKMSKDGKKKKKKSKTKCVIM

Row | Compound | EC50
1 | CCCC[C@@H]1NC(=O)[C@H](Cc2cccnc2)NC(=O)[C@H](C)N(C)C(=O)[C@H](Cc2ccc(O)cc2)NC(=O)C23CC(CNC(=O)[C@H](Cc4cccnc4)N(C)C(=O)[C@H](CCCC)NC(=O)[C@H](Cc4ccccc4F)NC1=O)(C2)C3 [compound 168, cyclo(Y-NMeA-3Pal-Nle-Phe2F-Nle-NMe3Pal-amBCP)] (cyclo(Y[NMeA][3Pal][Nle][Phe(2-F)][Nle][NMe3Pal][X1])) | 440 nM
2 | C[C@H](c1ccccc1)[C@H]1C(=O)NCC23CC(C2)(C3)C(=O)O[C@@H](Cc2ccccc2)C(=O)N(C)[C@@H](C)C(=O)N[C@@H](Cc2cncnc2)C(=O)N[C@@H](CC2CC2)C(=O)N[C@@H](Cc2ccccc2F)C(=O)N[C@@H](CCC(C)(C)F)C(=O)N1C [compound 341, cyclo(FLac-NMeA-PyrimAla-cPrA-Phe2F-hL3F-NMeRbMeF-amBCP)] (cyclo([Ala(cPr)][Phe(2-F)][X11][X19][X1][PhLac][NMeA][Ala(pyrimidin-5-yl)])) | 1370 nM
3 | CCCC[C@@H]1NC(=O)[C@H](Cc2ccc(O)cc2)NC(=O)[C@H](CC(C)C)NC(=O)[C@H](Cc2ccc(O)cc2)NC(=O)[C@H](CCCNC(=N)N)NC(=O)[C@H](Cc2ccccc2)NC(=O)CSC[C@H](C(N)=O)NC(=O)[C@H](Cc2ccccc2)N(C)C1=O [compound 18, cyclo(F-R-Y-L-Y-Nle-NMeF-dCl-ClAc)] | 825 nM
4 | CCCC[C@@H]1NC(=O)[C@H](Cc2ccc(F)nc2)NC(=O)[C@H](C)N(C)C(=O)[C@H](Cc2ccccc2)OC(=O)C23CC(CNC(=O)[C@H](Cc4ccccc4)N(C)C(=O)[C@H](CCCC)NC(=O)[C@H](Cc4ccccc4F)NC1=O)(C2)C3 [compound 231, cyclo(FLac-NMeA-4F3Pal-Nle-Phe2F-Nle-NMeF-amBCP)] (cyclo([NMeA][X25][Nle][Phe(2-F)][Nle][NMeF][X1][PhLac])) | 72.4 nM
5 | C[C@H]1C(=O)N[C@@H](Cc2cccnc2)C(=O)N[C@@H](CC2CC2)C(=O)N[C@@H](Cc2ccccc2F)C(=O)N[C@@H](CCC(C)(F)F)C(=O)N(C)[C@@H](Cc2ccccc2)C(=O)NCC23CC(C2)(C3)C(=O)O[C@@H](Cc2ccccc2)C(=O)N1C [compound 289, cyclo(FLac-NMeA-3Pal-cPrA-Phe2F-Nle3F2-NMeF-amBCP)] (cyclo([3Pal][Ala(cPr)][Phe(2-F)][Nle(5,5-F2)][NMeF][X1][PhLac][NMeA])) | 9 nM
6 | CCCC[C@@H]1NC(=O)[C@H](Cc2ccn(C)n2)NC(=O)[C@H](C)N(C)C(=O)[C@H](Cc2ccccc2)OC(=O)C23CC(CNC(=O)[C@H](Cc4ccccc4)N(C)C(=O)[C@H](CCCC)NC(=O)[C@H](Cc4ccccc4F)NC1=O)(C2)C3 [compound 319, cyclo(FLac-NMeA-MePyzAla-Nle-Phe2F-Nle-NMeF-amBCP)] (cyclo([NMeA][X57][Nle][Phe(2-F)][Nle][NMeF][X1][PhLac])) | 5070 nM
7 | CCCC[C@@H]1NC(=O)[C@H](Cc2ccc(N(C)C(=N)NC)cc2)NC(=O)[C@H](C)N(C)C(=O)[C@H](Cc2ccccc2)OC(=O)CSC[C@@](C)(C(N)=O)NC(=O)[C@H](Cc2cccnc2)N(C)C(=O)[C@H](CCCC)NC(=O)[C@H](Cc2ccccc2F)NC1=O [compound 397, cyclo(FLac-NMeA-Phe4GnMeMe-Nle-Phe2F-Nle-NMe3Pal-aMeCl-ClAc)] ({CH2CO}-[PhLac][NMeA][X18][Nle][Phe(2-F)][Nle][NMe3Pal][αMeC]-NH2; thioether N-8) | 2.73 nM
8 | CCCCC[C@@H]1NC(=O)[C@H](Cc2ccc(OC)cc2)NC(=O)[C@H](CC2CCC2)NC(=O)[C@H](Cc2ccn(C)n2)NC(=O)[C@H](CCCNC(=N)N)NC(=O)[C@H](Cc2ccccc2)NC(=O)CSC[C@@](C)(C(N)=O)NC(=O)[C@H](Cc2ccccc2)N(C)C1=O [compound 362, cyclo(F-R-MePyzAla-cBuA-TyrOMe-Ahp-NMeF-aMeCl-ClAc)] | 1810 nM
9 | CCCCC[C@@H]1NC(=O)[C@H](Cc2ccc(O)cc2)NC(=O)[C@H](CC(C)C)NC(=O)[C@H](Cc2ccc(O)cc2)NC(=O)[C@H](CCCNC(=N)N)NC(=O)[C@H](Cc2cn(C)c3ccccc23)NC(=O)CSC[C@@H](C(N)=O)NC(=O)[C@H](Cc2ccccc2)N(C)C1=O [compound 6, cyclo(TrplMe-R-Y-L-Y-Ahp-NMeF-Cl-ClAc)] ({CH2CO}-[Trp(1-Me)]RYLY[Ahp(2)][NMeF]C-NH2; thioether N-8) | 288 nM
10 | CCCC[C@@H]1NC(=O)[C@H](Cc2cncnc2)NC(=O)[C@H](C)N(C)C(=O)[C@H](Cc2ccccc2)OC(=O)C23CC(CNC(=O)[C@H](Cc4cccc(C)c4)N(C)C(=O)[C@H](CCCC)NC(=O)[C@H](Cc4ccccc4F)NC1=O)(C2)C3 [compound 172, cyclo(FLac-NMeA-PyrimAla-Nle-Phe2F-Nle-NMePhe3Me-amBCP)] (cyclo([NMeA][Ala(pyrimidin-5-yl)][Nle][Phe(2-F)][Nle][NMePhe(3-Me)][X1][PhLac])) | 6.03 nM
11 | CCCC[C@@H]1NC(=O)[C@H](Cc2ccncc2)NC(=O)[C@H](CCCNC(=N)N)NC(=O)[C@H](Cc2cccc3ccccc23)NC(=O)CSC[C@H](C(=O)O)NC(=O)[C@H](Cc2ccccc2)N(C)C(=O)[C@H](CCCC)NC(=O)[C@H](Cc2ccc(O)cc2)NC1=O [compound 198, cyclo(INal-R-4Pal-Nle-Y-Nle-NMeF-dC-ClAc)] ({CH2CO}-[1Nal]R[4Pal][Nle]Y[Nle][NMeF][dC]-OH; thioether N-8) | 299 nM
12 | CCCC[C@@H]1NC(=O)[C@H](Cc2cccnc2)NC(=O)[C@H](C)N(C)C(=O)[C@H](Cc2ccccc2)OC(=O)C23CC(CNC(=O)[C@H](CC4CCCCC4)N(C)C(=O)[C@H](CCCC)NC(=O)[C@H](Cc4ccccc4F)NC1=O)(C2)C3 [compound 232, cyclo(FLac-NMeA-3Pal-Nle-Phe2F-Nle-NMeCha-amBCP)] (cyclo([3Pal][Nle][Phe(2-F)][Nle][NMeCha][X1][PhLac][NMeA])) | 2930 nM
13 | CCCC[C@@H]1NC(=O)[C@H](CCCCN)NC(=O)[C@H](CCCNC(=N)N)NC(=O)[C@H](Cc2cccc3ccccc23)NC(=O)CSCCNC(=O)[C@H](Cc2ccccc2)N(C)C(=O)[C@H](CCCC)NC(=O)[C@H](Cc2cccc(C(=O)O)c2)NC1=O [compound 197, cyclo(1Nal-R-K-Nle-Phe3COOH-Nle-NMeF-Cysteamine)-ClAc] (cyclo([1Nal]RK[Nle][Phe(3-COOH)][Nle][NMeF][NHCH2CH2SCH2CO])) | 2120 nM
14 | CCCC[C@@H]1NC(=O)[C@H](Cc2ccc(CN)cc2)NC(=O)[C@H](CCCNC(=N)N)NC(=O)[C@H](Cc2cccc3ccccc23)NC(=O)CSC[C@](C)(C(=O)O)NC(=O)[C@H](Cc2ccccc2)N(C)C(=O)[C@H](CCCC)NC(=O)[C@H](Cc2ccc(O)cc2)NC1=O [compound 144, cyclo(1Nal-R-Phe4CH2NH2-Nle-Y-Nle-NMeF-daMeC-ClAc)] ({CH2CO}-[1Nal]R[Phe(4-CH2NH2)][Nle]Y[Nle][NMeF][d(αMeC)]-OH; thioether N-8) | 1460 nM
15 | CCC[C@@H]1NC(=O)[C@H](Cc2ccc(OC)cc2)NC(=O)[C@H](CC(C)C)NC(=O)[C@H](Cc2ccncc2)NC(=O)[C@H](CCCNC(=N)N)NC(=O)[C@H](Cc2ccc(F)cc2)NC(=O)CSCCNC(=O)[C@H](Cc2ccccc2)N(C)C1=O [compound 88, cyclo(Phe4F-R-4Pal-L-TyrOMe-Nva-NMeF-Cysteamine-ClAc)] (cyclo([4Pal]LY(Me)[Nva][NMeF][NHCH2CH2SCH2CO][Phe(4-F)]R)) | 3010 nM
16 | CCC[C@@H]1NC(=O)[C@H](Cc2ccc(OC)cc2)NC(=O)[C@H](CC(C)C)NC(=O)[C@H](Cc2ccncc2)NC(=O)[C@H](CCCNC(=N)N)NC(=O)[C@H](Cc2ccc(F)cc2)NC(=O)CSC[C@H](C(=O)NCC(=O)NCC(=O)O)NC(=O)[C@H](Cc2ccccc2)N(C)C1=O [compound 66, cyclo(Phe4F-R-4Pal-L-TyrOMe-Nva-NMeF-dC6-ClAc)] ({CH2CO}-[Phe(4-F)]R[4Pal]LY(Me)[Nva][NMeF][dC]GG-OH; thioether N-8) | 369 nM
17 | CCCC[C@@H]1NC(=O)[C@H](Cc2cncnc2)NC(=O)[C@H](C)N(C)C(=O)[C@H](Cc2ccccc2)OC(=O)C23CC(CNC(=O)[C@H](Cc4ccccc4)N(C)C(=O)[C@H](CCCC)NC(=O)[C@H](Cc4ncccc4F)NC1=O)(C2)C3 [compound 229, cyclo(FLac-NMeA-PyrimAla-Nle-2Pal6F-Nle-NMeF-amBCP)] (cyclo([NMeA][Ala(pyrimidin-5-yl)][Nle][X30][Nle][NMeF][X1][PhLac])) | 559 nM
18 | CCCC[C@@H]1NC(=O)[C@H](CCCNC(=N)N)NC(=O)[C@H](Cc2ccccc2)NC(=O)CSCCNC(=O)[C@H](Cc2ccccc2)N(C)C(=O)[C@H](CCCC)NC(=O)[C@H](Cc2ccc(O)cc2)NC(=O)[C@H](CC(C)C)NC1=O [compound 81, cyclo(F-R-Nle-L-Y-Nle-NMeF-Cysteamine-ClAc)] (cyclo(FR[Nle]LY[Nle][NMeF][NHCH2CH2SCH2CO])) | 7980 nM
19 | CCCC[C@@H]1NC(=O)[C@H](Cc2cccnc2)NC(=O)[C@H](CCCN(C)S(C)(=O)=O)N(C)C(=O)[C@H](Cc2ccccc2)OC(=O)C23CC(CNC(=O)[C@H](Cc4cccnc4)N(C)C(=O)[C@H](CCCC)NC(=O)[C@H](Cc4ccccc4F)NC1=O)(C2)C3 [compound 406, cyclo(FLac-NMeOmSuf-3Pal-Nle-Phe2F-Nle-NMe3Pal-amBCP)] (cyclo([3Pal][Nle][Phe(2-F)][Nle][NMe3Pal][X1][PhLac][X76])) | 26 nM
20 | CC(C)CC[C@@H]1NC(=O)[C@H](Cc2c(F)cncc2F)NC(=O)[C@H](CC2CC2)NC(=O)[C@H](Cc2cncnc2)NC(=O)[C@H](C)N(C)C(=O)[C@H](Cc2ccccc2)OC(=O)C23CC(CNC(=O)[C@H](Cc4ccccc4)N(C)C1=O)(C2)C3 [compound 292, cyclo(FLac-NMeA-PyrimAla-cPrA-4Pal26F2-hL-NMeF-amBCP)] (cyclo([Ala(cPr)][X14][hLeu][NMeF][X1][PhLac][NMeA][Ala(pyrimidin-5-yl)])) | 64 nM
21 | CCCCC[C@@H]1NC(=O)[C@H](Cc2ccc(OC)cc2)NC(=O)[C@H](CC2CCC2)NC(=O)[C@H](Cc2ccc(N(C)C(=N)NC)cc2)NC(=O)[C@H](CCCNC(=N)N)NC(=O)[C@H](Cc2ccccc2)NC(=O)CSC[C@@](C)(C(N)=O)NC(=O)[C@H](Cc2ccccc2)N(C)C1=O [compound 382, cyclo(F-R-Phe4GnMeMe-cBuA-TyrOMe-Ahp-NMeF-aMeCl-ClAc)] | 1.6 nM
